Structures can show the parent of a compound that is named as a salt. Where two headings read alike, the source gives them in different places.

Assay [1] addresses iNOS (Homo sapiens, UniProt P35228). Nature of the assay: NOS activity assay, iNOS (L-[3H]citrulline formation). The format is biochemical. On the procedure: (§1) Assay Protocol for NOS activity
(§2) NOS activity is measured as the formation of L-[2,3,4,5-^3 H]Citrullinefrom L-[2,3,4,5-^3 H]Arginine. The incubation buffer (100 μL) contained; 100 mM TES, pH 7.5, 5 μM FAD, 5 μM FMN, 10 μM BH4, 0.5 mM NADPH, 0.5 mM DTT, 0.5 mg/mL BSA, 2 mM CaCl2, 10 μg/mL calmodulin (bovine), 1 μM L-Arg, 0.2 μCi L-[2,3,4,5-^3 H]Arg, and the inhibitor in aqueous DMSO (max. 5%). The reaction is initiated by addition of enzyme. Incubations are performed at room temperature for 30 minutes and stopped by the addition of an equal volume of quenching buffer consisting of 200 mM sodium citrate, pH 2.2, 0.02% sodium azide. Reaction products are separated by passing through a cation exchange resin and quantitated as cpm by scintillation counting.

Assay [2] concerns the target ncNOS (Homo sapiens, UniProt P29475). Nature of the assay: biochemical.
Assay [3] deals with ecNOS (Homo sapiens, UniProt P29474). Nature of the assay: NOS activity assay, ecNOS (L-[3H]citrulline formation). The class given is biochemical. The protocol:
as §1, §2

Sequence of ncNOS (P29475 whole entry): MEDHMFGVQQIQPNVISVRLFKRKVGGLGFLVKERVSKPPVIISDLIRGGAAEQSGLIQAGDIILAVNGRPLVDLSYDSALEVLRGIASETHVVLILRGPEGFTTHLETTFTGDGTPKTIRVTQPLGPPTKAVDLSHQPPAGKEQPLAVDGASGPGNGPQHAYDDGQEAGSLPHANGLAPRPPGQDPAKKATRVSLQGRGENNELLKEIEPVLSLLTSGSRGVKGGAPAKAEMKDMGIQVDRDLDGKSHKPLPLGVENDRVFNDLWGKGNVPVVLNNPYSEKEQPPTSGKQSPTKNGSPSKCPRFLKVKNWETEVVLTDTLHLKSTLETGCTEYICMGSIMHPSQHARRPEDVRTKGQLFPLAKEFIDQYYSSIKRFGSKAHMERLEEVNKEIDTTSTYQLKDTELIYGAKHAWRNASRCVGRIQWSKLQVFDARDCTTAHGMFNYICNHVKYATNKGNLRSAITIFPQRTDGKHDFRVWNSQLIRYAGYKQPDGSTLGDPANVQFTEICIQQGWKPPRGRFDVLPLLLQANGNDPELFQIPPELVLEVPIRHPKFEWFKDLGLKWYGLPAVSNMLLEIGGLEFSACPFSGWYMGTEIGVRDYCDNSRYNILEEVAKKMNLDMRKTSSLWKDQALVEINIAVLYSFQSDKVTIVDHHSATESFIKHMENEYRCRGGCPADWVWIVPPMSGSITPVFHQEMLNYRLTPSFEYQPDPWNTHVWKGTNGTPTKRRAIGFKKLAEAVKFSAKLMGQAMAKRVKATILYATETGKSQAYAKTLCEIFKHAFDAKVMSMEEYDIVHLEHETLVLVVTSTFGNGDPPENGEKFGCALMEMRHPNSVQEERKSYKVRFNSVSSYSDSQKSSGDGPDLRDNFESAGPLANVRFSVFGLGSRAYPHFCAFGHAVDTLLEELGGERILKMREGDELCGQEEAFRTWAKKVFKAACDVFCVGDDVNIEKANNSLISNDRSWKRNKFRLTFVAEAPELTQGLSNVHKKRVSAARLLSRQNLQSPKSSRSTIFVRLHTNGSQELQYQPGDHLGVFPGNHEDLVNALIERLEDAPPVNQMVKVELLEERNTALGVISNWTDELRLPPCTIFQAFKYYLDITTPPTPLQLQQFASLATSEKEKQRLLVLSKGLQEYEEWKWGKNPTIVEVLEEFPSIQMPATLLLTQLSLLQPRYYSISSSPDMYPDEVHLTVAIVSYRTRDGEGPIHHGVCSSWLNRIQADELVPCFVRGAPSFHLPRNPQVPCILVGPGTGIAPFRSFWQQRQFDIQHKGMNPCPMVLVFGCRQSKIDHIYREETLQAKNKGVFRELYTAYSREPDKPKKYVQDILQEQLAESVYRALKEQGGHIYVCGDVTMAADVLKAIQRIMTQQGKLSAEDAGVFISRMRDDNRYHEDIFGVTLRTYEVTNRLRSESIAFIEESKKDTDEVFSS

Consider `N=C1CC[C@@H]2CCCC[C@H]2N1` (relative stereo) [Table 5: CH2, H, H, trans-(CH2)4, H, H, trans-Decahydro-2-iminoquinoline hydrochloride], for which the IC50 (in general, the concentration that gives 50% inhibition) in assay [1] (Table 5, read-out: IC50 iNOS) is no more than 1 µM; in assay [2] (Table 5, read-out: IC50 ncNOS) it was no more than 1 µM; in assay [3] (Table 5, read-out: IC50 ecNOS), no more than 10 µM.

With `CC[C@@H]1C(=N)NCC[C@@H]1C` (relative stereo) [Table 5: CH, C2H5, CH3, H, H, H, H, cis-3-Ethyl-2-imino-4-methyl-piperidine, hydrochloride], the IC50 in assay [1] (Table 5, read-out: IC50 iNOS) is no more than 50 µM; in assay [2] (Table 5, read-out: IC50 ncNOS) it was no more than 10 µM; in assay [3] (Table 5, read-out: IC50 ecNOS), no more than 50 µM.

For the compound `C[C@@H]1CC(=N)N[C@H](C)C1` (relative stereo) [Table 5: CH, H, CH3, H, CH3, H, H, cis-4,6-Dimethyl-2-imino-piperidine, acetic acid salt], the half-inhibitory concentration (IC50) in assay [1], in assay [2] and in assay [3] was no more than 1 µM throughout.

For `CCC[C@@H]1C(=N)NCC[C@@H]1C` (relative stereo) [Table 5: CH, n-C3H7, CH3, H, H, H, H, cis-2-Imino-4-methyl-3-n-propyl-piperidine, hydrochloride], the IC50 in assay [1] (Table 5, read-out: IC50 iNOS) was no more than 50 µM; in assay [2] (Table 5, read-out: IC50 ncNOS) it was no more than 50 µM; in assay [3] (Table 5, read-out: IC50 ecNOS), greater than 50 µM.

Regarding `N=C1CN[C@@H]2CCCC[C@@H]2N1` (relative stereo) [Table 5: N, H, H, cis-(CH2)4, H, H, 2-Imino-decahydro-cis-quinoxaline], the 50% inhibitory concentration (IC50) in assay [1] was no more than 10 µM; in assay [2] (Table 5, read-out: IC50 ncNOS) it was greater than 50 µM; in assay [3] it was greater than 50 µM.

On to `CC1CC(N)=NC1C` (single isomer, unassigned) [Table 4: H, CH3, CH3(A), H, H], for which the half-maximal inhibitory concentration (IC50) in assay [1] (Table 4, read-out: IC50 iNOS) is no more than 1 µM; in assay [2] (Table 4, read-out: IC50 ncNOS), no more than 1 µM; in assay [3] (Table 4, read-out: IC50 ecNOS), no more than 1 µM.

As for `CCC1CN=C(N)C1C` (stereo not drawn) [Table 4: CH3, C2H5, H, H, H, 2-Imino-4-ethyl-3-methylpyrrolidine hydrochloride], the IC50 is no more than 1 µM in assay [1] (Table 4, read-out: IC50 iNOS); no more than 10 µM in assay [2] (Table 4, read-out: IC50 ncNOS); greater than 50 µM in assay [3] (Table 4, read-out: IC50 ecNOS).

Turning to `CC1CN=C(N)C1C` (stereo not drawn) [Table 4: CH3, CH3, H, H, H, 2-Imino-3,4-dimethylpyrrolidine hydrochloride], the half-maximal inhibitory concentration (IC50) in assay [1] (Table 4, read-out: IC50 iNOS) is no more than 10 µM; in assay [2] (Table 4, read-out: IC50 ncNOS) it was no more than 1 µM; in assay [3] (Table 4, read-out: IC50 ecNOS), no more than 10 µM.

For `CC1CCN=C1N` (stereo not drawn) [Table 4: CH3, H, H, H, H, 2-Imino-3-methylpyrrolidine hydrochloride], the IC50 is no more than 10 µM in assay [1] (Table 4, read-out: IC50 iNOS); no more than 1 µM in assay [2]; no more than 10 µM in assay [3] (Table 4, read-out: IC50 ecNOS).

Take `CCC1CC(N)=NC1C` (stereo not drawn) [Table 4: H, C2H5, CH3, H, H, 2-Imino-4-ethyl-5-methylpyrrolidine hydrochloride]: the IC50 was no more than 1 µM in assay [1] (Table 4, read-out: IC50 iNOS); no more than 1 µM in assay [2] (Table 4, read-out: IC50 ncNOS); no more than 10 µM in assay [3] (Table 4, read-out: IC50 ecNOS).

As to `CCC1CN=C(N)C1` (stereo not drawn) [Table 4: H, C2H5, H, H, H, 2-Imino-4-ethylpyrrolidine hydrochloride], the half-maximal inhibitory concentration (IC50) in assay [1] (Table 4, read-out: IC50 iNOS) is no more than 1 µM; in assay [2] (Table 4, read-out: IC50 ncNOS), no more than 10 µM; in assay [3] (Table 4, read-out: IC50 ecNOS), no more than 50 µM.

On to `CCC1N=C(N)CC1C` (stereo not drawn) [Table 4: H, CH3, C2H5, H, H, 2-Imino-5-ethyl-4-methylpyrrolidine hydrochloride], for which the concentration for half-maximal inhibition (IC50) is no more than 1 µM in assay [1] (Table 4, read-out: IC50 iNOS); no more than 1 µM in assay [2]; no more than 1 µM in assay [3] (Table 4, read-out: IC50 ecNOS).

On to `CC1CC(N)=NC1C` (stereo not drawn) [Table 4: H, CH3, CH3, H, H, 2-Imino-4,5-dimethylpyrrolidine hydrochloride], for which the half-maximal inhibitory concentration (IC50) in assay [1] (Table 4, read-out: IC50 iNOS) is no more than 1 µM; in assay [2] (Table 4, read-out: IC50 ncNOS), less than 1 µM; in assay [3] (Table 4, read-out: IC50 ecNOS), less than 1 µM.

For the compound `CC1CN=C(N)C1` (stereo not drawn) [Table 4: H, CH3, H, H, H, 2-Imino-4-methylpyrrolidine hydrochloride], the values for the half-maximal inhibitory concentration (IC50) in assay [1], in assay [2] and in assay [3] were no more than 10 µM, no more than 1 µM and no more than 10 µM, respectively.

Consider `CCCC1N=C(N)CC1C` (stereo not drawn) [Table 4: H, CH3, n-C3H7, H, H, 2-Imino-4-methyl-5-propylpyrrolidine hydrochloride], for which the IC50 was no more than 10 µM in assay [1] (Table 4, read-out: IC50 iNOS); no more than 10 µM in assay [2] (Table 4, read-out: IC50 ncNOS); no more than 50 µM in assay [3] (Table 4, read-out: IC50 ecNOS).

Regarding `N=C1CC[C@@H]2CCCN12` [Table 4: H, H, (CH2)3, H, 5-(S)-2-Imino-1-aza-bicyclo(3.3.0)octane], the half-maximal inhibitory concentration (IC50) in assay [1] (Table 4, read-out: IC50 iNOS) is greater than 50 µM; in assay [2] (Table 4, read-out: IC50 ncNOS) it was no more than 10 µM; in assay [3] (Table 4, read-out: IC50 ecNOS), no more than 50 µM.

As to `CC1(C)CCC(=N)N1` [Table 4: H, H, (CH3)2, H, H, 2-Imino-5,5-dimethylpyrrolidine hydrochloride], the IC50 is no more than 10 µM in assay [1] (Table 4, read-out: IC50 iNOS); no more than 10 µM in assay [2] (Table 4, read-out: IC50 ncNOS); no more than 50 µM in assay [3] (Table 4, read-out: IC50 ecNOS).

In the case of `CC(=O)OC[C@H]1CCC(=N)N1` [Table 4: H, H, (R)-CH2OAc, H, H, 2-Imino-5-(R)-acetyloxymethylpyrrolidine hydrochloride], the IC50 in assay [1] (Table 4, read-out: IC50 iNOS) is greater than 50 µM; in assay [2] (Table 4, read-out: IC50 ncNOS), greater than 50 µM; in assay [3] (Table 4, read-out: IC50 ecNOS), greater than 50 µM.

Regarding `N=C1CC[C@H](CO)N1` [Table 4: H, H, (R)-CH2OH, H, H, 2-Imino-5-(R)-hydroxymethylpyrrolidine hydrochloride], the concentration for half-maximal inhibition (IC50) was no more than 50 µM in assay [1] (Table 4, read-out: IC50 iNOS); no more than 50 µM in assay [2] (Table 4, read-out: IC50 ncNOS); no more than 50 µM in assay [3] (Table 4, read-out: IC50 ecNOS).

Consider `CC(=O)OC[C@@H]1CCC(=N)N1` [Table 4: H, H, (S)-CH2OAc, H, H, 2-Imino-5-(S)-acetyloxymethylpyrrolidine hydrochloride], for which the concentration for half-maximal inhibition (IC50) in assay [1] (Table 4, read-out: IC50 iNOS) is no more than 50 µM; in assay [2] (Table 4, read-out: IC50 ncNOS), no more than 10 µM; in assay [3] (Table 4, read-out: IC50 ecNOS) it was greater than 50 µM.

In the case of `N=C1CC[C@@H](CO)N1` [Table 4: H, H, (S)-CH2OH, H, H, 2-Imino-5-(S)-hydroxymethylpyrrolidine hydrochloride], the IC50 in assay [1] (Table 4, read-out: IC50 iNOS) is no more than 10 µM; in assay [2] (Table 4, read-out: IC50 ncNOS), no more than 50 µM; in assay [3] (Table 4, read-out: IC50 ecNOS), greater than 50 µM.

As for `CCC1CCC(=N)N1` (stereo not drawn) [Table 4: H, H, C2H5, H, H], the IC50 in assay [1] (Table 4, read-out: IC50 iNOS) was no more than 50 µM; in assay [2] (Table 4, read-out: IC50 ncNOS) it was no more than 10 µM; in assay [3] (Table 4, read-out: IC50 ecNOS), no more than 10 µM.

For `CC1CCC(N)=N1` (stereo not drawn) [Table 4: H, H, CH3, H, H, 2-Imino-5-methylpyrrolidine hydrochloride], the IC50 in assay [1] was no more than 10 µM; in assay [2], no more than 10 µM; in assay [3] (Table 4, read-out: IC50 ecNOS), no more than 10 µM.

Turning to `Oc1ccc(CCNC2=NCCC2)cc1O` [Table 4: H, H, H, H, C2 H4 Ph-3,4-(OH)2, 1-Aza-2-((3,4-dihydroxyphenyl)ethyl)amino-1-cyclopentene hydrochloride], the IC50 in assay [1] (Table 4, read-out: IC50 iNOS) was greater than 50 µM; in assay [2] (Table 4, read-out: IC50 ncNOS) it was greater than 50 µM; in assay [3] (Table 4, read-out: IC50 ecNOS), greater than 50 µM.

In the case of `NC1=NCCC1` [Table 4: H, H, H, H, H, 1-Aza-2-imino-cyclopentane hydrochloride], the IC50 in assay [1] (Table 4, read-out: IC50 iNOS) was no more than 10 µM; in assay [2], no more than 10 µM; in assay [3], no more than 10 µM.

Regarding `CC(C)C1CN=C(N)C1` (stereo not drawn) [Table 4: H, i-C3H7, H, H, H, 2-Imino-4-(2-methyl-ethyl)pyrrolidine hydrochloride], the IC50 in assay [1] (Table 4, read-out: IC50 iNOS) is no more than 10 µM; in assay [2] (Table 4, read-out: IC50 ncNOS) it was no more than 50 µM; in assay [3] (Table 4, read-out: IC50 ecNOS), greater than 50 µM.

Regarding `CCCC1CC(N)=NC1CC` (stereo not drawn) [Table 4: H, n-C3H7, C2H5, H, H, 2-Imino-5-ethyl-4-propylpyrrolidine hydrochloride], the 50% inhibitory concentration (IC50) was no more than 50 µM in assay [1] (Table 4, read-out: IC50 iNOS); no more than 50 µM in assay [2] (Table 4, read-out: IC50 ncNOS); greater than 50 µM in assay [3] (Table 4, read-out: IC50 ecNOS).

For `CCCC1CC(N)=NC1C` (stereo not drawn) [Table 4: H, n-C3H7, CH3, H, H, 2-Imino-5-methyl-4-propylpyrrolidine hydrochloride], the IC50 in assay [1] (Table 4, read-out: IC50 iNOS) was no more than 50 µM; in assay [2] (Table 4, read-out: IC50 ncNOS) it was no more than 50 µM; in assay [3] (Table 4, read-out: IC50 ecNOS) it was greater than 50 µM.

The record behind these values is patent publication US5629322A, “Cyclic amidine analogs as inhibitors of nitric oxide synthase” (priority 1995, dated 1997).
